The test system of this experiment is M. mycetomatis genome strain MM55. In words: CLSI M38-A2 based in vitro susceptibility screening (XTT or resazurin), growth at fixed concentration. In kind it is cell-based, Madurella mycetomatis. The following applies: Madurella mycetomatis; for Percent fungal survival at 100 µM: read-out: Percentage survival at 100um, 100 uM A (second replicate column).
The mark [1] stands for this setting: mean of replicates, read-out: Percentage survival at 25um, 25 uM mean.
The mark [2] stands for this setting: replicate A, read-out: Percentage survival at 25um, 25 um A.
Setting [3] is: replicate B, read-out: Percentage survival at 25um, 25 uM B.
Where [4] appears, read: replicate C, read-out: Percentage survival at 25um, 25 uM C.
Setting [5] is: mean of replicates, read-out: Percentage survival at 100um, 100 uM mean.
Setting [6] is: replicate 1, read-out: Percentage survival at 100um, 100 uM A.
Setting [7] is: replicate 2, read-out: Percentage survival at 100um, 100 uM A.
Where [8] appears, read: replicate 3, read-out: Percentage survival at 100um, 100 uM A.
[9] abbreviates: mean of three replicates, read-out: Percentage survival at 25um, 25 uM mean.
Where [10] appears, read: first replicate column, read-out: Percentage survival at 100um, 100 uM A.
[11] abbreviates: mean of three replicates, read-out: Percentage survival at 100um, 100 uM mean.
The mark [12] stands for this setting: second replicate column, read-out: Percentage survival at 100um, 100 uM A.
Setting [13] is: third replicate column, read-out: Percentage survival at 100um, 100 uM A.
The mark [14] stands for this setting: replicate 1, read-out: Percentage survival at 100um, 100 uM A (first replicate column).
Where [15] appears, read: replicate 3, read-out: Percentage survival at 100um, 100 uM A (third replicate column).
Where [16] appears, read: mean of replicates, MM55, read-out: Percentage survival at 25um, 25 uM mean.
The mark [17] stands for this setting: replicate A, MM55, read-out: Percentage survival at 25um, 25 um A.
Where [18] appears, read: replicate B, MM55, read-out: Percentage survival at 25um, 25 uM B.
Where [19] appears, read: replicate C, MM55, read-out: Percentage survival at 25um, 25 uM C.
The mark [20] stands for this setting: mean of replicates, MM55, read-out: Percentage survival at 100um, 100 uM mean.
Where [21] appears, read: replicate 1, MM55, read-out: Percentage survival at 100um, 100 uM A.
Setting [22] is: replicate 2, MM55, read-out: Percentage survival at 100um, 100 uM A.
The mark [23] stands for this setting: replicate 3, MM55, read-out: Percentage survival at 100um, 100 uM A.
[24] abbreviates: mean, read-out: Percentage survival at 25um, 25 uM mean.
[25] abbreviates: mean, read-out: Percentage survival at 100um, 100 uM mean.
[26] abbreviates: replicate (first column), read-out: Percentage survival at 100um, 100 uM A.
Where [27] appears, read: replicate (second column), read-out: Percentage survival at 100um, 100 uM A.
[28] abbreviates: replicate (third column), read-out: Percentage survival at 100um, 100 uM A.
Where [29] appears, read: mean of three, M. mycetomatis MM55, read-out: Percentage survival at 25um, 25 uM mean.
[30] abbreviates: replicate A, M. mycetomatis MM55, read-out: Percentage survival at 25um, 25 um A.
Where [31] appears, read: replicate B, M. mycetomatis MM55, read-out: Percentage survival at 25um, 25 uM B.
[32] abbreviates: replicate C, M. mycetomatis MM55, read-out: Percentage survival at 25um, 25 uM C.
[33] abbreviates: mean of three, M. mycetomatis MM55, read-out: Percentage survival at 100um, 100 uM mean.
[34] abbreviates: replicate 1, M. mycetomatis MM55, read-out: Percentage survival at 100um, 100 uM A (first replicate column).
[35] abbreviates: replicate 2, M. mycetomatis MM55.
Setting [36] is: replicate 3, M. mycetomatis MM55, read-out: Percentage survival at 100um, 100 uM A (third replicate column).

In PMC8815882, “Screening the pandemic response box identified benzimidazole carbamates, Olorofim and ravuconazole as promising drug candidates for the treatment of eumycetoma” (PLoS Neglected Tropical Diseases, 2022) one finds activity and Percent fungal survival data, which are given here for 16 molecules.

Where two headings read alike, the source gives them in different places.

With `O=S(=O)(Nc1ccccc1)c1ccc(NC(=S)Nc2ccccc2)cc1` [MMV1578562], the activity at 25 µM is 90% under setting [1], 93.2% under setting [2], 90.8% under setting [3] and 86.1% under setting [4]. Further, the activity at 100 µM was 86% under setting [5], 96.1% under setting [6], 79.6% under setting [7] and 82.2% under setting [8].

With `N#CCN1C(=O)COc2cc(F)c(N3C(=O)c4ccccc4C3=O)cc21` [MMV1579785], the activity at 25 µM by setting is: under setting [1], 81.2%; under setting [2], 78.3%; under setting [3], 91.5%; under setting [4], 73.8%. Also, the activity at 100 µM by setting is: under setting [5], 88.3%; under setting [6], 83.8%; under setting [7], 94.2%; under setting [8], 87%.

`N#Cc1cc([N+](=O)[O-])ccc1Oc1ccccc1Cl` [MMV1580800]: the activity at 25 µM under setting [9] amounted to 66.8%, the activity at 25 µM under setting [2] is 54.7%, the activity at 25 µM under setting [3] was determined as 82.6% and the activity at 25 µM under setting [4] came out at 63.1%. The activity at 100 µM runs as follows: under setting [10], 3.13%; under setting [11], 19.4%; under setting [12], 3.43%; under setting [13], 51.7%.

For the molecule `Cc1ccn2c(C(=O)NCc3ccccc3)c(C)nc2c1` [MMV1579847], the activity at 25 µM is 82.9% under setting [9], 90.2% under setting [2], 66.1% under setting [3] and 92.5% under setting [4]. For the same molecule, the activity at 100 µM by setting is: under setting [11], 61.9%; under setting [14], 72.5%; under setting [15], 57.5%. In addition, the Percent fungal survival at 100 µM (replicate 2) was determined as 55.8%.

As for `CCc1oc2ccccc2c1C(=O)c1ccc(O)cc1` [MMV1578558], the activity at 25 µM reads like this: under setting [1], 91.9%; under setting [2], 95.8%; under setting [3], 97%; under setting [4], 82.9%. For the same molecule, the activity at 100 µM under setting [5] was 2.03%, the activity at 100 µM under setting [6] was -1.97%, the activity at 100 µM under setting [7] is 6.39% and the activity at 100 µM under setting [8] worked out at 1.66%.

Take `CC(C)n1cnc2c(NCc3ccccc3)nc(NCc3ccccc3)nc21` [MMV1579780]: the activity at 25 µM is 62.7% under setting [1], 64.2% under setting [2], 61.7% under setting [3] and 62% under setting [4]. Further, the activity at 100 µM under setting [5] turned out to be 61%, the activity at 100 µM under setting [6] is 60.4%, the activity at 100 µM under setting [7] amounted to 63.1% and the activity at 100 µM under setting [8] turned out to be 59.6%.

Regarding `C[C@H](NC(CC(=O)c1ccccc1C(F)(F)F)C(=O)O)c1ccccc1` (some centres unmarked) [MMV1579778], the activity at 25 µM is, setting by setting: under setting [9], 93.5%; under setting [2], 98.1%; under setting [3], 92%; under setting [4], 90.5%. The activity at 100 µM worked out at 87.3% under setting [11], 91.1% under setting [14] and 88.1% under setting [15]. Besides, the Percent fungal survival at 100 µM (replicate 2) amounted to 82.8%.

`CSc1ccc2c(c1)C(N1CCN(C)CC1)Cc1ccccc1S2` (centres unmarked) [MMV002505]: the activity at 25 µM is 38.4% under setting [16], 7.34% under setting [17], 101% under setting [18] and 6.61% under setting [19]. Also, the activity at 100 µM under setting [20] was 3.79%, the activity at 100 µM under setting [21] came to 3.82%, the activity at 100 µM under setting [22] is -0.0923% and the activity at 100 µM under setting [23] stood at 7.64%.

Consider `O=C(O)c1ccccc1Sc1ncnc2sc3c(c12)CCC3` [MMV1579878], for which the activity at 25 µM was 83.5% under setting [24], 89.3% under setting [2], 87% under setting [3] and 74.1% under setting [4]. The activity at 100 µM by setting is: under setting [25], 57%; under setting [26], 1.56%; under setting [27], 73.3%; under setting [28], 96.2%.

As to `O=C(Nc1[nH]c(=O)ncc1F)c1ccccc1` [MMV1782225], the activity at 25 µM reads like this: under setting [24], 79%; under setting [2], 82.4%; under setting [3], 77.6%; under setting [4], 77.1%. For the same molecule, the activity at 100 µM under setting [25] is 83.6%, the activity at 100 µM under setting [26] amounted to 74.1%, the activity at 100 µM under setting [27] was determined as 79.1% and the activity at 100 µM under setting [28] came to 97.6%.

For the molecule `Nc1ccc(-c2nc3cc(C(F)(F)F)ccc3n2C23CC4CC(CC(C4)C2)C3)cc1` [MMV1634385], the activity at 25 µM is, setting by setting: under setting [16], 82.4%; under setting [17], 108%; under setting [18], 85.4%; under setting [19], 54%. Besides, the activity at 100 µM under setting [20] was 57.5%, the activity at 100 µM under setting [21] came out at 61.2%, the activity at 100 µM under setting [22] was determined as 52.2% and the activity at 100 µM under setting [23] was 59.1%.

Take `CC1(C)Cc2c(C#N)c(SCCc3ccccc3)nc(N3CCOCC3)c2CO1` [MMV1549626]: the activity at 25 µM was 62.3% under setting [29], 67.7% under setting [30], 59.1% under setting [31] and 60.3% under setting [32]. Moreover, the activity at 100 µM was determined as 87.3% under setting [33], 92.1% under setting [34] and 65.1% under setting [36]. Also, the Percent fungal survival at 100 µM under setting [35] stood at 105%.

As for `Fc1ccc(-n2cc(Cn3c(-c4cccc(F)c4)nc4ccccc43)nn2)cc1` [MMV1580850], the activity at 25 µM is, setting by setting: under setting [29], 60.8%; under setting [30], 55.7%; under setting [31], 55.1%; under setting [32], 71.7%. For the same molecule, the activity at 100 µM under setting [33] was 85.9%, the activity at 100 µM under setting [34] came to 71.4% and the activity at 100 µM under setting [36] was 126%. Also, the Percent fungal survival at 100 µM under setting [35] stood at 60.3%.

In the case of `CC(C)(C)NC(=O)N[C@H](C(=O)N1C[C@H]2[C@@H]([C@H]1C(=O)NC(CC1CCC1)C(=O)C(N)=O)C2(C)C)C(C)(C)C` (some centres unmarked) [MMV1580497], the activity at 25 µM is, setting by setting: under setting [9], 88.1%; under setting [2], 89.4%; under setting [3], 98%; under setting [4], 76.8%. The activity at 100 µM is 98.5% under setting [10], 93.6% under setting [11], 87.9% under setting [12] and 94.6% under setting [13].

In the case of `NC(=O)c1ccccc1NC(=O)c1ccc(C(=O)Nc2ccccc2C(N)=O)cc1` [MMV508427], the activity at 25 µM under setting [29] came to 86.7%, the activity at 25 µM under setting [30] amounted to 92%, the activity at 25 µM under setting [31] is 87.7% and the activity at 25 µM under setting [32] amounted to 80.3%. For the same molecule, the activity at 100 µM under setting [33] was determined as 95.7%, the activity at 100 µM under setting [34] is 98.6% and the activity at 100 µM under setting [36] stood at 95.8%. In addition, the Percent fungal survival at 100 µM under setting [35] is 92.7%.

Regarding `Nc1nc(Nc2ccc3nc(-c4ccc(F)cc4)cc(N)c3c2)cc(-c2ccccc2)n1` [MMV1593541], the activity at 25 µM under setting [29] was 65.8%, the activity at 25 µM under setting [30] stood at 82.5%, the activity at 25 µM under setting [31] turned out to be 80.3% and the activity at 25 µM under setting [32] is 34.5%. The activity at 100 µM under setting [33] worked out at 2.33%, the activity at 100 µM under setting [34] stood at 5.55% and the activity at 100 µM under setting [36] was -4.16%. In addition, the Percent fungal survival at 100 µM under setting [35] stood at 5.6%.
